Test results from the kinase profiling compilation of Christmann-Franck et al. (2016).

Assays:
Test in all cases: radiometric filter-binding kinase assay, Kinase HotSpot
[1] = molecular target: FLT1 (human) (UniProt P17948); conditions: compound 0.5 µM; ATP 10 µM
[2] = molecular target: CSNK1G3 (human) (UniProt Q9Y6M4); conditions: compound 0.5 µM; ATP 10 µM
[3] = molecular target: MARK4 (human) (UniProt Q96L34); conditions: compound 0.5 µM; ATP 10 µM
[4] = molecular target: FRK (human) (UniProt P42685); conditions: compound 0.5 µM; ATP 10 µM
[5] = molecular target: GSK3A (human) (UniProt P49840); conditions: compound 0.5 µM; ATP 10 µM
[6] = molecular target: PAK2 (human) (UniProt Q13177); conditions: compound 0.5 µM; ATP 10 µM
[7] = molecular target: MAP2K2 (human) (UniProt P36507); conditions: compound 0.5 µM; ATP 10 µM
[8] = molecular target: CAMK4 (human) (UniProt Q16566); conditions: compound 0.5 µM; ATP 10 µM
[9] = molecular target: ROCK1 (human) (UniProt Q13464); conditions: compound 0.5 µM; ATP 10 µM
[10] = tested on: SGK1 (human), O00141 [S422D]; conditions: compound 0.5 µM; ATP 10 µM
[11] = molecular target: PRKCB1 (human) (UniProt P05771); conditions: compound 0.5 µM; ATP 10 µM
[12] = molecular target: AURKA (human) (UniProt O14965); conditions: compound 0.5 µM; ATP 10 µM
[13] = molecular target: NEK7 (human) (UniProt Q8TDX7); conditions: compound 0.5 µM; ATP 10 µM
[14] = molecular target: PRKG2 (human) (UniProt Q13237); conditions: compound 0.5 µM; ATP 10 µM
[15] = molecular target: PRKD3 (human) (UniProt O94806); conditions: compound 0.5 µM; ATP 10 µM
[16] = molecular target: SRPK2 (human) (UniProt P78362); conditions: compound 0.5 µM; ATP 10 µM
[17] = molecular target: CAMKK1 (human) (UniProt Q8N5S9); conditions: compound 0.5 µM; ATP 10 µM
[18] = molecular target: MAPKAPK3 (human) (UniProt Q16644); conditions: compound 0.5 µM; ATP 10 µM
[19] = molecular target: IKBKE (human) (UniProt Q14164); conditions: compound 0.5 µM; ATP 10 µM
[20] = molecular target: ABL1 (human) (UniProt P00519); conditions: compound 0.5 µM; ATP 10 µM
[21] = molecular target: EPHA3 (human) (UniProt P29320); conditions: compound 0.5 µM; ATP 10 µM
[22] = molecular target: FLT3 (human) (UniProt P36888); conditions: compound 0.5 µM; ATP 10 µM
[23] = molecular target: TSSK1B (human) (UniProt Q9BXA7); conditions: compound 0.5 µM; ATP 10 µM
[24] = molecular target: PBK (human) (UniProt Q96KB5); conditions: compound 0.5 µM; ATP 10 µM
[25] = molecular target: MAPKAPK5 (human) (UniProt Q8IW41); conditions: compound 0.5 µM; ATP 10 µM
[26] = molecular target: SRPK1 (human) (UniProt Q96SB4); conditions: compound 0.5 µM; ATP 10 µM
[27] = molecular target: CHEK2 (human) (UniProt O96017); conditions: compound 0.5 µM; ATP 10 µM
[28] = molecular target: PRKCH (human) (UniProt P24723); conditions: compound 0.5 µM; ATP 10 µM
[29] = molecular target: GRK5 (human) (UniProt P34947); conditions: compound 0.5 µM; ATP 10 µM
[30] = molecular target: EPHA1 (human) (UniProt P21709); conditions: compound 0.5 µM; ATP 10 µM
[31] = molecular target: PRKCG (human) (UniProt P05129); conditions: compound 0.5 µM; ATP 10 µM
[32] = molecular target: CDK5 CDK5R1 p25 (human) (UniProt Q00535+Q15078); conditions: compound 0.5 µM
[33] = molecular target: GRK4 (human) (UniProt P32298); conditions: compound 0.5 µM; ATP 10 µM
[34] = molecular target: NEK6 (human) (UniProt Q9HC98); conditions: compound 0.5 µM; ATP 10 µM
[35] = molecular target: MST1R (human) (UniProt Q04912); conditions: compound 0.5 µM; ATP 10 µM
[36] = molecular target: DAPK3 (human) (UniProt O43293); conditions: compound 0.5 µM; ATP 10 µM
[37] = molecular target: PHKG2 (human) (UniProt P15735); conditions: compound 0.5 µM; ATP 10 µM
[38] = molecular target: HIPK2 (human) (UniProt Q9H2X6); conditions: compound 0.5 µM; ATP 10 µM
[39] = molecular target: FGFR3 (human) (UniProt P22607); conditions: compound 0.5 µM; ATP 10 µM
[40] = molecular target: MELK (human) (UniProt Q14680); conditions: compound 0.5 µM; ATP 10 µM
[41] = molecular target: DYRK1A (human) (UniProt Q13627); conditions: compound 0.5 µM; ATP 10 µM
[42] = molecular target: CDK1 CCNA2 (human) (UniProt P06493+P20248); conditions: compound 0.5 µM

Chain of ABL1 (human) (P00519 whole entry, looked up): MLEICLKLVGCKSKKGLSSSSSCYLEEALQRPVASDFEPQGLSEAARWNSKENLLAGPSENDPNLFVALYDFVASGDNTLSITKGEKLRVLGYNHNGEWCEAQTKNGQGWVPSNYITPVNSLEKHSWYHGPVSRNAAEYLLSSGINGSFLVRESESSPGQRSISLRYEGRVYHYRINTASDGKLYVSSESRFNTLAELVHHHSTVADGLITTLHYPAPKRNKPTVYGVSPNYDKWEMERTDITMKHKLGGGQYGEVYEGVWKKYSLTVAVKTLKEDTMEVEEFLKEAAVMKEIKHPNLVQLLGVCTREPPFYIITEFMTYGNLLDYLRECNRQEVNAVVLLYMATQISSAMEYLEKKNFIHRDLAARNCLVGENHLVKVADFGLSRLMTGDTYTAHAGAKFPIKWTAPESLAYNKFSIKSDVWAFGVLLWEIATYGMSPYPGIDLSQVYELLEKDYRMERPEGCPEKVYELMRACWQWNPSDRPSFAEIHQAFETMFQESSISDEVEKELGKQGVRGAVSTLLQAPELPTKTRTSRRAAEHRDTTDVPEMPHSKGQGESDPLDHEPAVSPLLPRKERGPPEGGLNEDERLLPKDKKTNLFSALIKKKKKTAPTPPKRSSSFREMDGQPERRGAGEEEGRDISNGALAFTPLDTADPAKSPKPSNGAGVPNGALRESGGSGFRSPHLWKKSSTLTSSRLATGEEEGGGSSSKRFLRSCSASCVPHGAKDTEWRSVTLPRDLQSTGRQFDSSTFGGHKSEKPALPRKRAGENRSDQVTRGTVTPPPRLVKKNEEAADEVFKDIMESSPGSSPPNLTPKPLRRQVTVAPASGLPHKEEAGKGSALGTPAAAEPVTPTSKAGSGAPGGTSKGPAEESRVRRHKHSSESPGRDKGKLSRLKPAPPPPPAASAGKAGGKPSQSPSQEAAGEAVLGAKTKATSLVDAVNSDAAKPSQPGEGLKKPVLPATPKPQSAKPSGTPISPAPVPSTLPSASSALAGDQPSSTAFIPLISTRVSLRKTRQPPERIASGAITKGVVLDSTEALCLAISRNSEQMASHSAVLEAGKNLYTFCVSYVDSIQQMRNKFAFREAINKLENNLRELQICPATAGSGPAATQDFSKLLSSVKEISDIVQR
Chain of MARK4 (human) (Q96L34 whole entry, looked up): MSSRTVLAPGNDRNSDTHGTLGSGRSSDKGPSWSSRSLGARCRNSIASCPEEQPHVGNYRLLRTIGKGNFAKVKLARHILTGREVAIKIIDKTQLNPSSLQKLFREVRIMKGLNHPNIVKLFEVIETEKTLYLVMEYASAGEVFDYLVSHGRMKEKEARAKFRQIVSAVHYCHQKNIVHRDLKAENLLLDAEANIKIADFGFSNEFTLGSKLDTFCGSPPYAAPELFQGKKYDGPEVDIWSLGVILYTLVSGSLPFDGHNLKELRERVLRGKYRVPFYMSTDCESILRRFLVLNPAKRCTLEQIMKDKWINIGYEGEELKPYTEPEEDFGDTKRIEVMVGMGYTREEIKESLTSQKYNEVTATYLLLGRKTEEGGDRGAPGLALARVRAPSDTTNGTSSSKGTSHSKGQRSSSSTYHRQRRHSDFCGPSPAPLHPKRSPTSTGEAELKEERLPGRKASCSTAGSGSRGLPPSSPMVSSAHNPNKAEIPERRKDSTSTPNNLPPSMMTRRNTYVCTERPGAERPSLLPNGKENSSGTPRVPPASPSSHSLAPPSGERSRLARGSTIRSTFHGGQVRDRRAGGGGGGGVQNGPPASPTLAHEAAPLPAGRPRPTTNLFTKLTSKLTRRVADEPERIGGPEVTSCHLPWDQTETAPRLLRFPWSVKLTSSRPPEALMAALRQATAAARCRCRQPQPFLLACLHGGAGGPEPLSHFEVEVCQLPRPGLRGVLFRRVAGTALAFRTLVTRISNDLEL
Chain of GRK4 (human) (P32298 whole entry, looked up): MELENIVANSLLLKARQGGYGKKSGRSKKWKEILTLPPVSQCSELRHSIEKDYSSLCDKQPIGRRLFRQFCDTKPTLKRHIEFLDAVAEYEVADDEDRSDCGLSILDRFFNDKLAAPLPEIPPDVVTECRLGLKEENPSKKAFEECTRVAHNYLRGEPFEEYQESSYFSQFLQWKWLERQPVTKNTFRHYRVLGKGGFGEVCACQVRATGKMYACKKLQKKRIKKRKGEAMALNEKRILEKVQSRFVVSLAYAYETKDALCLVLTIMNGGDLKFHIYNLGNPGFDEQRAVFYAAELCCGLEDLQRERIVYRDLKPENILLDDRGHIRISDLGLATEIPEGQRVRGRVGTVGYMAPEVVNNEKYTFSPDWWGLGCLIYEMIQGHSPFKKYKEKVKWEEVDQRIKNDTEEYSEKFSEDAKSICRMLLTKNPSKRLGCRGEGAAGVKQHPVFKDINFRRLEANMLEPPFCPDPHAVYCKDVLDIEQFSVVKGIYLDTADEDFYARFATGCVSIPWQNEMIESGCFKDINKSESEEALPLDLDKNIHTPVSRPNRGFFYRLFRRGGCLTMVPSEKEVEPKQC
Chain of HIPK2 (human) (Q9H2X6 whole entry, looked up): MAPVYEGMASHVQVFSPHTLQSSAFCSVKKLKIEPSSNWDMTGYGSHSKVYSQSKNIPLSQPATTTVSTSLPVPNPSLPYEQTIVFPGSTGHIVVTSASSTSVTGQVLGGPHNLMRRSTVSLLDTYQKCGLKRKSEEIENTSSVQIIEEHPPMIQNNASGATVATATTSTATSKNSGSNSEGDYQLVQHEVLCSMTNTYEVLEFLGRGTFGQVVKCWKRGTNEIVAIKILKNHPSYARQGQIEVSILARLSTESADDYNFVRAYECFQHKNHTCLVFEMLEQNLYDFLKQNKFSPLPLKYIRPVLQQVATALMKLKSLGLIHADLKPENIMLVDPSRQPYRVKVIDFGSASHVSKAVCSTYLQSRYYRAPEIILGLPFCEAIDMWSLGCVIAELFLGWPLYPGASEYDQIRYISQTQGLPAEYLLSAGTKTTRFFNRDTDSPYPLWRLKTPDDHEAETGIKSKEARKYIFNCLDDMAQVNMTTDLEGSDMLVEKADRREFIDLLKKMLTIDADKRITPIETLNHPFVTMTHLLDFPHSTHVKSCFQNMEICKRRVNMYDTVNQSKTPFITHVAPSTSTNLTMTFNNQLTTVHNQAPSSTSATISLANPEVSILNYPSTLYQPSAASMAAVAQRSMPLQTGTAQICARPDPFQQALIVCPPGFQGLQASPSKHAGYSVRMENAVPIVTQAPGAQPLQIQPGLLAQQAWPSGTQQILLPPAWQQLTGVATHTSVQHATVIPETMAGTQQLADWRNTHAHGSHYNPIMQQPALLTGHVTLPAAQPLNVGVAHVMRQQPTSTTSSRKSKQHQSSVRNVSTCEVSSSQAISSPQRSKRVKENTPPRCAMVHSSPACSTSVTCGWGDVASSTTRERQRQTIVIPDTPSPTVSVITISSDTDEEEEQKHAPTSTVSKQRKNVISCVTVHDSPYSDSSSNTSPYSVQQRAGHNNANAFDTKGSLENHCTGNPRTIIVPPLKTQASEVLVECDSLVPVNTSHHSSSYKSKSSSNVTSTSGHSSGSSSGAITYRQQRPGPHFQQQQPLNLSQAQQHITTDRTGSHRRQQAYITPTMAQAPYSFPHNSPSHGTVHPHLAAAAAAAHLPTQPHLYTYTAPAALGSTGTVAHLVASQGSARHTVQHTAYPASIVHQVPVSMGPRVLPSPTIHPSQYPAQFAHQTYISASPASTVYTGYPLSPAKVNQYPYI
Chain of NEK7 (human) (Q8TDX7 whole entry, looked up): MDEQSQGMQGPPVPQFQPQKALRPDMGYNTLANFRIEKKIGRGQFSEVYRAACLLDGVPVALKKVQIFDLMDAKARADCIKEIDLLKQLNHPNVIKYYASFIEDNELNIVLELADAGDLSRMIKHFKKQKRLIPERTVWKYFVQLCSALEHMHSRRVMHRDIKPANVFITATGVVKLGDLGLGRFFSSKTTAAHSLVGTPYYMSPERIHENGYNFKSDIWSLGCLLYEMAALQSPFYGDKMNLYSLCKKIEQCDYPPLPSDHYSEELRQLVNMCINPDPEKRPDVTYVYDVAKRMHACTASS
Chain of NEK6 (human) (Q9HC98 whole entry, looked up): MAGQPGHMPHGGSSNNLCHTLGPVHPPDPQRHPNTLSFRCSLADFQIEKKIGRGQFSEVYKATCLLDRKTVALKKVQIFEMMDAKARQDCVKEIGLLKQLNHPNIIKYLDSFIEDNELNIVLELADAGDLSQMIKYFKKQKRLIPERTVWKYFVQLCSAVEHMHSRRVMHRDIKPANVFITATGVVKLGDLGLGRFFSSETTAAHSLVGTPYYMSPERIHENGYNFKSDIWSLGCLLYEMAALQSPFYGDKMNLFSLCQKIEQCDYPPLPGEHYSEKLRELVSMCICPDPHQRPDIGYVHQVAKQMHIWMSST
Chain of PRKG2 (human) (Q13237 whole entry, looked up): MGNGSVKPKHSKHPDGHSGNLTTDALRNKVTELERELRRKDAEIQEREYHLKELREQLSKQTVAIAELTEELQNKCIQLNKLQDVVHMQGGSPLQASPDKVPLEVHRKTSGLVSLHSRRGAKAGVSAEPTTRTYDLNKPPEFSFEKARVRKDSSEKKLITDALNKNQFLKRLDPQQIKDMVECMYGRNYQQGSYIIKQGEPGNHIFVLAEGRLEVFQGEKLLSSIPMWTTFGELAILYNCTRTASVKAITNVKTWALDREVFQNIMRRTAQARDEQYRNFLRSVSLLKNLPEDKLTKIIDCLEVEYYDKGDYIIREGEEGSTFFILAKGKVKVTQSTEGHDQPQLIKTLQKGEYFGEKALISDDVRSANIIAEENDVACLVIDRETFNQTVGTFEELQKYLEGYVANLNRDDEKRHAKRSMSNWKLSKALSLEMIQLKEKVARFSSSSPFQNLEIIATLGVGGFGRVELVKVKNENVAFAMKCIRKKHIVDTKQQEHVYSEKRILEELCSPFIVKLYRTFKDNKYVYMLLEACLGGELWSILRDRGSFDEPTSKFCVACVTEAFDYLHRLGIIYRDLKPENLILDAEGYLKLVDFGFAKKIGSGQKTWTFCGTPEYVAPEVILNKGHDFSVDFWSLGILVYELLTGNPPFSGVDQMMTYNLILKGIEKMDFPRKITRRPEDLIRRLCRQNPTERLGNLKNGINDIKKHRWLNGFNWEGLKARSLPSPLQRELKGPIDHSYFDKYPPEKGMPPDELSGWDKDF

Question: Which results are given for `O=C1NC(=O)c2cc(Nc3ccc(F)cc3)c(Nc3ccc(F)cc3)cc21`?
Answer: residual activity [1]: 81.5%; residual activity [2]: 90.7%; residual activity [3]: 98.2%; residual activity [4]: 97.2%; residual activity [5]: 88.2%; residual activity [6]: 98.5%; residual activity [7]: 89.5%; residual activity [8]: 98.7%; residual activity [9]: 96.7%; residual activity [10]: 103%; residual activity [11]: 28.2%; residual activity [12]: 92.7%; residual activity [13]: 103%; residual activity [14]: 83.3%; residual activity [15]: 96.7%; residual activity [16]: 92.3%; residual activity [17]: 90.2%; residual activity [18]: 95.9%; residual activity [19]: 100%; residual activity [20]: 95.7%; residual activity [21]: 96.6%; residual activity [22]: 91.5%; residual activity [23]: 90.2%; residual activity [24]: 88.4%; residual activity [25]: 93.4%; residual activity [26]: 102%; residual activity [27]: 94.3%; residual activity [28]: 83.3%; residual activity [29]: 101%; residual activity [30]: 97.4%; residual activity [31]: 102%; residual activity ([32]; ATP 10 µM): 85.9%; residual activity [33]: 103%; residual activity [34]: 109%; residual activity [35]: 100%; residual activity [36]: 101%; residual activity [37]: 97.1%; residual activity [38]: 96.6%; residual activity [39]: 99.7%; residual activity [40]: 92%; residual activity [41]: 95.6%; residual activity ([42]; ATP 10 µM): 96.1%

Question: `Cn1cc(/C=C2\C(=O)Nc3ccc(S(N)(=O)=O)cc32)c2ccccc21` was tested. Which residual activity [1] did it give?
Answer: 70.1%

Question: And the residual activity [2]?
Answer: 109%

Question: What about the residual activity [3] of the same molecule?
Answer: 40.6%

Question: And the residual activity [4]?
Answer: 97.1%

Question: What about the residual activity [5] of the same molecule?
Answer: 100%

Question: And the residual activity [6]?
Answer: 79.2%

Question: And the residual activity [7]?
Answer: 94.7%

Question: What about the residual activity [8] of the same molecule?
Answer: 96.4%

Question: And the residual activity [9]?
Answer: 63.8%

Question: What about the residual activity [10] of the same molecule?
Answer: 71.8%

Question: And the residual activity [11]?
Answer: 114%

Question: What about the residual activity [12] of the same molecule?
Answer: 20%

Question: What about the residual activity [13] of the same molecule?
Answer: 101%

Question: What about the residual activity [14] of the same molecule?
Answer: 85%

Question: What about the residual activity [15] of the same molecule?
Answer: 76.4%

Question: What about the residual activity [16] of the same molecule?
Answer: 51.4%

Question: What about the residual activity [17] of the same molecule?
Answer: 44.9%

Question: What about the residual activity [18] of the same molecule?
Answer: 91.5%

Question: And the residual activity [19]?
Answer: 21.9%

Question: And the residual activity [20]?
Answer: 52.5%

Question: What about the residual activity [21] of the same molecule?
Answer: 80.9%

Question: And the residual activity [22]?
Answer: 1.56%

Question: And the residual activity [23]?
Answer: 17%

Question: And the residual activity [24]?
Answer: 99.6%

Question: And the residual activity [25]?
Answer: 88.3%

Question: And the residual activity [26]?
Answer: 69%

Question: What about the residual activity [27] of the same molecule?
Answer: 1.3%

Question: And the residual activity [28]?
Answer: 102%

Question: And the residual activity [29]?
Answer: 86.3%

Question: What about the residual activity [30] of the same molecule?
Answer: 101%

Question: And the residual activity [31]?
Answer: 106%

Question: What about the residual activity ([32]; ATP 10 µM) of the same molecule?
Answer: 58%

Question: What about the residual activity [33] of the same molecule?
Answer: 40.4%

Question: And the residual activity [34]?
Answer: 98.6%

Question: And the residual activity [35]?
Answer: 100%

Question: What about the residual activity [36] of the same molecule?
Answer: 94.1%

Question: And the residual activity [37]?
Answer: 52%

Question: And the residual activity [38]?
Answer: 82.6%

Question: And the residual activity [39]?
Answer: 33.8%

Question: What about the residual activity [40] of the same molecule?
Answer: 63%

Question: What about the residual activity [41] of the same molecule?
Answer: 92.2%

Question: And the residual activity ([42]; ATP 10 µM)?
Answer: 56.9%

Question: Which residual activity [1] does the source give for `O=c1[nH]c2ccccc2n1C1CCN(Cc2ccc(-c3nc4cc5[nH]cnc5cc4nc3-c3ccccc3)cc2)CC1` here?
Answer: 92.2%

Question: And the residual activity [2]?
Answer: 96.5%

Question: What about the residual activity [3] of the same molecule?
Answer: 102%

Question: What about the residual activity [4] of the same molecule?
Answer: 102%

Question: What about the residual activity [5] of the same molecule?
Answer: 100%

Question: And the residual activity [6]?
Answer: 99.2%

Question: What about the residual activity [7] of the same molecule?
Answer: 86.6%

Question: And the residual activity [8]?
Answer: 101%

Question: What about the residual activity [9] of the same molecule?
Answer: 101%

Question: And the residual activity [10]?
Answer: 102%

Question: What about the residual activity [11] of the same molecule?
Answer: 108%

Question: What about the residual activity [12] of the same molecule?
Answer: 99%

Question: What about the residual activity [13] of the same molecule?
Answer: 99.6%

Question: What about the residual activity [14] of the same molecule?
Answer: 96.8%

Question: And the residual activity [15]?
Answer: 99.5%

Question: What about the residual activity [16] of the same molecule?
Answer: 116%

Question: And the residual activity [17]?
Answer: 117%

Question: And the residual activity [18]?
Answer: 104%

Question: And the residual activity [19]?
Answer: 91.9%

Question: And the residual activity [20]?
Answer: 98.2%

Question: What about the residual activity [21] of the same molecule?
Answer: 71.9%

Question: And the residual activity [22]?
Answer: 94.6%

Question: What about the residual activity [23] of the same molecule?
Answer: 96.5%

Question: And the residual activity [24]?
Answer: 103%

Question: What about the residual activity [25] of the same molecule?
Answer: 97.4%

Question: What about the residual activity [26] of the same molecule?
Answer: 106%

Question: What about the residual activity [27] of the same molecule?
Answer: 100%

Question: What about the residual activity [28] of the same molecule?
Answer: 101%

Question: And the residual activity [29]?
Answer: 109%

Question: What about the residual activity [30] of the same molecule?
Answer: 84.4%

Question: What about the residual activity [31] of the same molecule?
Answer: 92.2%

Question: What about the residual activity [32] of the same molecule?
Answer: 96.9%

Question: And the residual activity [33]?
Answer: 104%

Question: And the residual activity [34]?
Answer: 98.2%

Question: And the residual activity [35]?
Answer: 111%

Question: And the residual activity [36]?
Answer: 106%

Question: What about the residual activity [37] of the same molecule?
Answer: 104%

Question: And the residual activity [38]?
Answer: 110%

Question: And the residual activity [39]?
Answer: 101%

Question: And the residual activity [40]?
Answer: 110%

Question: What about the residual activity [41] of the same molecule?
Answer: 101%

Question: And the residual activity [42]?
Answer: 102%
